Test results reported in ChEMBL document CHEMBL1151113, “Umuhengerin, a new antimicrobially active flavonoid from Lantana trifolia” (1988).
Converted amounts (≈) assume the structure as drawn. The source made the active and inactive calls. The calls are words filed in the database; no cut-off is given here.

Key:
[1] = test system: Staphylococcus aureus; experiment: Antibacterial activity against Staphylococcus aureus ATCC 25923; format: functional
[2] = test system: Micrococcus; experiment: Antibacterial activity against Micrococcus sp.; format: functional
[3] = test system: Streptococcus pneumoniae; experiment: Antibacterial activity against Streptococcus pneumoniae; format: functional
[4] = test system: Streptococcus pyogenes; experiment: Antibacterial activity against Streptococcus pyogenes; format: functional
[5] = test system: Microsporum canis; experiment: Antifungal activity against Microsporum canis; format: functional
[6] = test system: Streptococcus viridans; experiment: Antibacterial activity against Streptococcus viridans; format: functional
[7] = test system: Neisseria gonorrhoeae; experiment: Antibacterial activity against Neisseria gonorrhoeae; format: functional
[8] = test system: Klebsiella aerogenes; experiment: Antibacterial activity against Enterobacter aerogenes; format: functional
[9] = test system: Escherichia coli; experiment: Antibacterial activity against Escherichia coli; format: functional
[10] = test system: Klebsiella pneumoniae; experiment: Antibacterial activity against Klebsiella pneumoniae; format: functional
[11] = test system: Proteus vulgaris; experiment: Antibacterial activity against Proteus vulgaris; format: functional
[12] = test system: Pseudomonas aeruginosa; experiment: Antibacterial activity against Pseudomonas aeruginosa; format: functional
[13] = test system: Salmonella typhimurium; experiment: Antibacterial activity against Salmonella Typhimurium; format: functional, Salmonella enterica subsp. enterica serovar Typhimurium; conditions: Salmonella enterica
[14] = test system: Serratia marcescens; experiment: Antibacterial activity against Serratia marcescens; format: functional
[15] = test system: Shigella flexneri; experiment: Antibacterial activity against Shigella flexneri; format: functional
[16] = test system: Mycolicibacterium fortuitum; experiment: Antibacterial activity against Mycobacterium fortuitum; format: functional
[17] = test system: Candida albicans; experiment: Antifungal activity against Candida albicans; format: functional
[18] = test system: Candida tropicalis; experiment: Antifungal activity against Candida tropicalis; format: functional
[19] = test system: Aspergillus flavus; experiment: Antifungal activity against Aspergillus flavus; format: functional
[20] = test system: Aspergillus fumigatus; experiment: Antifungal activity against Aspergillus fumigatus; format: functional
[21] = test system: Aspergillus niger; experiment: Antifungal activity against Aspergillus niger; format: functional
[22] = test system: Trichophyton mentagrophytes; experiment: Antifungal activity against Trichophyton mentagrophytes; format: functional
[23] = test system: Trichophyton rubrum; experiment: Antifungal activity against Trichophyton rubrum; format: functional
[24] = test system: Human alphaherpesvirus 1; experiment: Antiviral activity against Herpes simplex virus 1 in african green monkey Vero cells; format: functional, organism-based
[25] = test system: Coxsackievirus; experiment: Antiviral activity against Coxsackievirus B2 in african green monkey Vero cells; format: functional, organism-based
[26] = test system: Poliovirus 1; experiment: Antiviral activity against Human poliovirus 1 1A/S2 in african green monkey Vero cells; format: functional, organism-based
[27] = test system: Semliki Forest virus; experiment: Antiviral activity against Semliki forest virus in african green monkey Vero cells; format: functional, organism-based

With `COc1cc(-c2cc(=O)c3c(O)c(OC)c(OC)cc3o2)cc(OC)c1OC` [GRADENIN A] as the compound, how does the MIC [1] read?
Its MIC is 20 µg/mL (≈ 51.5 µM).

What about the MIC [2] of the same compound?
Its MIC is over 200 µg/mL.

And the MIC [3]?
The MIC was over 200 µg/mL.

And the MIC [4]?
Its MIC is over 200 µg/mL.

And the MIC [5]?
The MIC was 50 µg/mL (≈ 129 µM).

And the MIC [6]?
Its MIC is over 200 µg/mL.

What about the MIC [7] of the same compound?
Its MIC is over 200 µg/mL.

And the MIC [8]?
Its MIC is over 200 µg/mL.

And the MIC [9]?
The MIC was over 200 µg/mL.

And the MIC [10]?
Its MIC is over 200 µg/mL.

And the MIC [11]?
Its MIC is over 200 µg/mL.

What about the MIC [12] of the same compound?
Its MIC is over 200 µg/mL.

And the MIC [13]?
The MIC was 5 µg/mL (≈ 12.9 µM).

And the MIC [14]?
Its MIC is over 200 µg/mL.

And the MIC [15]?
The MIC was over 200 µg/mL.

And the MIC [16]?
The MIC was over 200 µg/mL.

What about the MIC [17] of the same compound?
Its MIC is over 200 µg/mL.

And the MIC [18]?
The MIC was 20 µg/mL (≈ 51.5 µM).

What about the MIC [19] of the same compound?
The MIC was over 200 µg/mL.

And the MIC [20]?
The MIC was 200 µg/mL (≈ 515 µM).

And the MIC [21]?
The MIC was 200 µg/mL (≈ 515 µM).

And the MIC [22]?
The MIC was 50 µg/mL (≈ 129 µM).

What about the MIC [23] of the same compound?
Its MIC is over 200 µg/mL.

And the Activity [24]?
Its Activity is “inactive”.

What about the Activity [25] of the same compound?
Its Activity is “inactive”.

And the Activity [26]?
Its Activity is “inactive”.

And the Activity [27]?
Its Activity is “inactive”.
